The values that follow come from patent US7786121B2, “Derivatives of hydroxamic acid as metalloproteinase inhibitors” (Vernalis (Oxford) Limited, priority 2003, dated 2010).

For one test, the target named is 92 kDa gelatinase (MMP9) (Homo sapiens, UniProt P14780). In words: MMP9 enzyme inhibition assay, coumarin-labelled peptide substrate. The class given is biochemical. Conditions: recombinant human MMP-9, 37° C., 2 hours; read-out: MMP-9 (nM) inhibitory activity. As for the experimental part: Compounds of the invention were tested for inhibitory activity against 92 kDa gelatinase (MMP9) in an assay using a coumarin-labelled peptide substrate, (7-methoxycoumarin-4-yl)acetyl-Pro-Leu-Gly-Leu-(3-[2,4-dinitrophenyl]-L-2,3-diaminopropionyl)-Ala-Arg-NH2 (McaPLGLDpaAR) (Knight et al, FEBS Lett. 1992; 263-266).
92 kDa gelatinase (MMP9), sequence (P14780 107-707 limits assumed): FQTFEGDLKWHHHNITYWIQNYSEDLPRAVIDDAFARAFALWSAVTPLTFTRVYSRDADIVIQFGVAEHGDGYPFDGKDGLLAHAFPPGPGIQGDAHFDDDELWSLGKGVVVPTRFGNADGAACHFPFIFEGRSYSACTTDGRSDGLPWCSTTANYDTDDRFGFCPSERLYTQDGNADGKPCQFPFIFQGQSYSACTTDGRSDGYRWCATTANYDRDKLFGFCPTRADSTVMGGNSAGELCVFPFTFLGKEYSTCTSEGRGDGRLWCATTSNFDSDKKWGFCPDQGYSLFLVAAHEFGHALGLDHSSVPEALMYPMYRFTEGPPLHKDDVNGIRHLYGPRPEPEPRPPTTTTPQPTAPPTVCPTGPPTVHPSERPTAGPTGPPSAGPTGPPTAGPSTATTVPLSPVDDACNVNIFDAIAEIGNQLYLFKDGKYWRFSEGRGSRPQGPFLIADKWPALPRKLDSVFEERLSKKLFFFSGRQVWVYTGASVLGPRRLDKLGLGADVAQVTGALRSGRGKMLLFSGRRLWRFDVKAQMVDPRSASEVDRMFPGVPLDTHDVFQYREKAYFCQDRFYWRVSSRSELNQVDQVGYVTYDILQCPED
(§1) Stock solutions were made up as follows: • Assay Buffer: 100 mM Tris-HCl pH 7.6 containing 100 mM NaCl, 10 mM CaCl2, and 0.05% Brij 35 • Substrate: 0.4 mM McaPLGLDpaAR (from Bachem) (0.437 mg/ml) stock solution in 100% • DMSO (stored at −20° C.). Dilute to 8 μM in assay buffer. • Enzyme: Recombinant human 92 kDa gelatinase (MMP-9; APMA (4-aminophenylmercuric acetate)-activated if necessary) appropriately diluted in assay buffer.
(§2) Test Compounds were prepared initially as 10 mM compound solution in 100% DMSO, diluted to 1 mM in 100% DMSO, then serially diluted 3-fold in 100% DMSO across columns 1-10 of a 96-well microtitre plate Assay concentration range, 100 μM (column 1) to 5.1 nM (column 10)
(§3) The assay was performed in a total volume of 100 μl upper well in 96-well microtitre plates. Activated enzyme (20 μl) was added to the wells followed by 20 μl of assay buffer. Appropriate concentrations of test compounds dissolved in 10 μl of DMSO were then added followed by 50 μl of McaPLGLDpaAR (8 μM, prepared by dilution of DMSO stock in assay buffer). For each assay ten concentrations of test compound were examined in duplicate. Control wells lack either enzyme or test compound. The reactions were incubated at 37° C. for 2 hours. The fluorescence at 405 nm was measured immediately with an SLT Fluostar fluorometer (SLT Labinstruments GmbH, Grödig, Austria) using 320 nm excitation, without stopping the reaction.
(§4) The effect of the test compound was determined from the dose response curve generated by the 10 duplicate concentrations of inhibitor. The IC50 (the concentration of compound required to give a 50% decrease in enzyme activity) was obtained by fitting data to the equation, Y=a+((b−a)/(1+(c/X)^d)). (Y=inhibition achieved for a particular dose; X=the dose in nM; a=minimum y or zero % inhibition; b=maximum y or 100% inhibition; c=is the IC50; d=is the slope). The result was rounded to one significant figure.

The next test concerns the target T1, MMP-2 (Homo sapiens, UniProt P08253).
T1 sequence (P08253 110-660): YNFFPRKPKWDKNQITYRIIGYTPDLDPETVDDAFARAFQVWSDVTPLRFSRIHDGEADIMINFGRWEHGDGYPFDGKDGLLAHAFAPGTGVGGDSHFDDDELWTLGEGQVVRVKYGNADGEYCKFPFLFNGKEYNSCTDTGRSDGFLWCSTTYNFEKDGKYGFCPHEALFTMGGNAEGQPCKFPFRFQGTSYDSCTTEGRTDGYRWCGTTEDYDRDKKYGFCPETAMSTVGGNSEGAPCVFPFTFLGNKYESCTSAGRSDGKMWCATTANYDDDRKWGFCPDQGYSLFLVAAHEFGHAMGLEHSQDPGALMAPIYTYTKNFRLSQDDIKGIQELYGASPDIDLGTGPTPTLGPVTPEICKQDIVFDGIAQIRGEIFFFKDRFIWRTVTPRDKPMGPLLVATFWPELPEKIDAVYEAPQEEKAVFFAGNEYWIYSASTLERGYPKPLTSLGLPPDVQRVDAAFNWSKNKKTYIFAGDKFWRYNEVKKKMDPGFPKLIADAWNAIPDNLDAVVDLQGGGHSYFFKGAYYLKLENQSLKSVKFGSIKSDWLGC
Put plainly: MMP-2 enzyme inhibition. The class given is biochemical. Conditions: read-out: MMP-2 (nM) inhibitory activity. From the text:
For instance the inhibitory activities of some of the compounds of the examples against MMP-12, MMP-9, MMP-2 and MMP-1 are set out in the following table: […]

In a further test the target is T2, collagenase (MMP1) (Homo sapiens, UniProt P03956).
T2 sequence (P03956 100-469): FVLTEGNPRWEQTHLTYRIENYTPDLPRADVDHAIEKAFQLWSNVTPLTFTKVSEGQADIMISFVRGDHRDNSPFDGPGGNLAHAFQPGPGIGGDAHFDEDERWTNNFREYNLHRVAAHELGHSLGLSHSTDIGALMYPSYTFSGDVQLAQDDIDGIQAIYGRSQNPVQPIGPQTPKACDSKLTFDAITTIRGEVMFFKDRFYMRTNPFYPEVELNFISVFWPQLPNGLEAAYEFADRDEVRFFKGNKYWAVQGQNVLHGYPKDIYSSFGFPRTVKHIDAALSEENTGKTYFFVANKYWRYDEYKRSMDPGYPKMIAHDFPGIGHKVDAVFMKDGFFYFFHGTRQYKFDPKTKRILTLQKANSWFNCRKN
In words: MMP1 enzyme inhibition assay, coumarin-labelled peptide substrate. The class given is biochemical. Particulars: read-out: MMP-1 (nM) inhibitory activity. How it is done:
as §1, §2, §3, §4
Compounds of the invention were tested for inhibitory activity against collagenase (MMP1) in an assay using a coumarin-labelled peptide substrate, (7-methoxycoumarin-4-yl)acetyl-Pro-Leu-Gly-Leu-(3-[2,4-dinitrophenyl]-L-2,3-diaminopropionyl)-Ala-Arg-NH2 (McaPLGLDpaAR) (Knight et al, FEBS Lett. 1992; 263-266). The protocol for this assay was as described for the MMP9 assay above.

The next test addresses metalloelastase (MMP12) (Homo sapiens, UniProt P39900). Put plainly: MMP12 enzyme inhibition assay, coumarin-labelled peptide substrate. Format: biochemical. Conditions: read-out: MMP-12 (nM) inhibitory activity. How it is done: as §1, §2, §3, §4
Compounds of the invention were tested for inhibitory activity against metalloelastase (MMP12) in an assay using a coumarin-labelled peptide substrate, (7-methoxycoumarin-4-yl)acetyl-Pro-Leu-Gly-Leu-(3-[2,4-dinitrophenyl]-L-2,3-diaminopropionyl)-Ala-Arg-NH2 (McaPLGLDpaAR) (Knight et al, FEBS Lett. 1992; 263-266). The protocol for this assay was as described for the MMP9 assay above.

Test [1] concerns IL2-induced peritoneal recruitment of lymphocytes. Put plainly: IL2-induced peritoneal recruitment of lymphocytes in mice. Format: in vivo. Particulars: C3H mice. As for the experimental part:
B. Biological Assay: IL2-Induced Peritoneal Recruitment of Lymphocytes in Mice Protocol
C3H Mice (Elevage Janvier) (8 week old, n=6) received IL2 (SPRI, 20 μg/kg, 40 ml/kg, ip) 15 min after administration of the test molecules. Twenty-four hours later, the animals were sacrificed and the lavage of the peritoneal cavity was conducted using 3×5 ml PBS-1 mM EDTA (+4° C.). After centrifugation (10 min at 3000 rpm), the pellet was resuspended in 1 ml PBS. The peritoneal cells were counted using a Beckman/Coulter counter. IL2 was solubilized in saline. The test compounds of the invention were solubilized or suspended in 0.5% carboxymethylcellulose (CMC)/0.25% Tween-20 and orally administered. […]

The mark [2] stands for this setting: 3 mg/kg po, 15 min before IL2 ip, cells counted 24 h later.

metalloelastase (MMP12), sequence (P39900 106-470): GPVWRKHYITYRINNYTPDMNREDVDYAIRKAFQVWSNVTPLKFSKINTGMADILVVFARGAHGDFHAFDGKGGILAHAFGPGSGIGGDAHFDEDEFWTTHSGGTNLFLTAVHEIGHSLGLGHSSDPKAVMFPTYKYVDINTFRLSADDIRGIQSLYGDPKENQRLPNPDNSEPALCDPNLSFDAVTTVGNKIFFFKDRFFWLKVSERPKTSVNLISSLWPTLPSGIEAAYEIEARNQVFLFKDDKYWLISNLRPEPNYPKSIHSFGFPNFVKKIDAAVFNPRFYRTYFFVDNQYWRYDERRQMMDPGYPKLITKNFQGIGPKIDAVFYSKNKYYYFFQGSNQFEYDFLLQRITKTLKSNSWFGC

Turning to `CCOc1ccc(CCC[C@@H](C(=O)N2CCN(c3ccncc3)CC2)[C@H](O)C(=O)NO)cc1` [Example 6, 6-(4-ethoxy-phenyl)-2S-hydroxy-3R-(4-pyridin-4-yl-piperazine-1-carbonyl)-hexanoic acid hydroxyamide], the IC50 at 92 kDa gelatinase (MMP9) is 100 to 1000 nM; at MMP-2 it was 100 to 1000 nM; at collagenase (MMP1) it was over 10000 nM; on metalloelastase (MMP12) it was under 100 nM. Besides, in test [1] (setting [2]), the “% Inhibition of IL2-induced peritoneal recruitment” value (shortened to “% Inhibition”) was 33%.
For `CCOc1ccc(CCC[C@@H](C(=O)N2CCN(c3ccccc3F)CC2)[C@H](O)C(=O)NO)cc1` [Example 20, 6-(4-ethoxy-phenyl)-2S-hydroxy-3R-[4-(2-fluoro-phenyl)-piperazine-1-carbonyl]-hexanoic acid hydroxyamide], the IC50 on 92 kDa gelatinase (MMP9) is under 100 nM; at MMP-2, under 100 nM; at collagenase (MMP1), over 10000 nM; at metalloelastase (MMP12) it was under 100 nM. The “% Inhibition” value in test [1] (setting [2]) amounted to 57%.
For `C[C@@H]1C[C@H]2[C@@H]3CCC4=CC(=O)C=C[C@]4(C)[C@@]3(F)[C@@H](O)C[C@]2(C)[C@@]1(O)C(=O)CO` [Dexamethazone, Dexamethasone, reference compound], in test [1] (1 mg/kg sc (reference compound)), the “% Inhibition” value is 76%.
`CCOc1ccc(CCC[C@@H](C(=O)N2CCN(c3ccccn3)CC2)[C@H](O)C(=O)NO)cc1` [Example 5, 6-(4-ethoxy-phenyl)-2S-hydroxy-3R-(4-pyridin-2-yl-piperazine-1-carbonyl)-hexanoic acid hydroxyamide]: the IC50 at 92 kDa gelatinase (MMP9) is under 100 nM; on MMP-2, under 100 nM; at collagenase (MMP1), over 10000 nM; on metalloelastase (MMP12) it was under 100 nM. Also, the “% Inhibition” value in test [1] (setting [2]) worked out at 50%.
Turning to `CCOc1ccc(CCC[C@@H](C(=O)N2CCN(Cc3ccc4c(c3)OCO4)CC2)[C@H](O)C(=O)NO)cc1` [Example 12, 3R-(4-benzo[1,3]dioxol-5-ylmethyl-piperazine-1-carbonyl)-6-(4-ethoxy-phenyl)-2S-hydroxy-hexanoic acid hydroxyamide], the IC50 at 92 kDa gelatinase (MMP9) is under 100 nM; on MMP-2, under 100 nM; at collagenase (MMP1), over 10000 nM; on metalloelastase (MMP12), under 100 nM.
Regarding `CCOc1ccc(CCC[C@@H](C(=O)N2CCN(c3ccccc3F)CC2)[C@H](OC)C(=O)NO)cc1` [Example 62, 6-(4-ethoxy-phenyl)-2S-methoxy-3R-[4-(2-fluoro-phenyl)-piperazine-1-carbonyl]-hexanoic acid hydroxyamide], the IC50 was under 100 nM at 92 kDa gelatinase (MMP9), under 100 nM on MMP-2, over 10000 nM at collagenase (MMP1) and under 100 nM on metalloelastase (MMP12).
As to `CCOc1ccc(CCC[C@@H](C(=O)N2CCN(Cc3ccncc3)CC2)[C@H](O)C(=O)NO)cc1` [Example 13, 6-(4-ethoxy-phenyl)-2S-hydroxy-3R-(4-pyridin-4-ylmethyl-piperazine-1-carbonyl)-hexanoic acid hydroxyamide], the IC50 at 92 kDa gelatinase (MMP9) was under 100 nM; on MMP-2, under 100 nM; at collagenase (MMP1), over 10000 nM; at metalloelastase (MMP12), under 100 nM. In test [1] (setting [2]), the “% Inhibition” value was determined as 47%.
Regarding `CCOc1ccc(CCC[C@@H](C(=O)N2CCN(c3ccc(OC)cc3)CC2)[C@H](O)C(=O)NO)cc1` [Example 4, 6-(4-ethoxy-phenyl)-2S-hydroxy-3R-[4-(4-methoxy-phenyl)-piperazine-1-carbonyl]-hexanoic acid hydroxyamide], the IC50 on 92 kDa gelatinase (MMP9) is under 100 nM; on MMP-2, under 100 nM; at collagenase (MMP1), over 10000 nM; at metalloelastase (MMP12), under 100 nM. Moreover, in test [1] (setting [2]), the “% Inhibition” value turned out to be 34%.
For `CCOc1ccc(CCC[C@@H](C(=O)N2CCN(Cc3ccccc3)CC2)[C@H](O)C(=O)NO)cc1` [Example 14, 6-(4-ethoxy-phenyl)-2S-hydroxy-3R-(4-benzylpiperazine-1-carbonyl)-hexanoic acid hydroxyamide], the IC50 on 92 kDa gelatinase (MMP9) was under 100 nM; at MMP-2, under 100 nM; on collagenase (MMP1), over 10000 nM; at metalloelastase (MMP12), under 100 nM. Besides, the “% Inhibition” value in test [1] (setting [2]) stood at 30%.
